Source: patent US20170122958A1, “Enzymes Functional Probes” (University of Dundee, priority 2013, published 2017)

How the values were obtained:
Brd2(2) = target: T1, Brd2(2) (Homo sapiens, UniProt P25440); assay: DSF thermal shift; format: binding; details: wild type
T1 construct: Plasmids of the eight single BET bromodomain constructs Brd2(1), Brd2(2), Brd3(1), Brd3(2); His6 (N); made in house; host or cells: E. coli BL21(DE3)

Brd2(1)*(Met165Ala) = Brd2(1)*(Met165Ala) (Homo sapiens, UniProt P25440, M165A); assay: DSF thermal shift; format: binding; design: Plasmids of the eight single BET bromodomain constructs Brd2(1), Brd2(2), Brd3(1), Brd3(2); His6 (N); made in house; host or cells: E. coli BL21(DE3); details: mutant
Description: (§1) DSF assays were performed on a LightCycler®480 from Roche or a Mx3005P Real Time PCR machine from Stratagene. Prior to DSF assays, frozen proteins were buffer exchanged using Vivaspin®6 concentrators with a 10 kDa cutoff on a Centrifuge 5430 from Eppendorf at a speed of 6000×g to remove glycerol and to buffer the proteins in 20 mM HEPES pH 7.5 at 25° C. and 100 mM NaCl. SYPRO®Orange from Invitrogen Molecular Probes® was used as a reporter dye to monitor the denaturing process of the proteins. Samples were assayed on a 96-well plate with final protein concentrations of 2 μM for the LightCycler®480 and 6 μM for Mx3005P. Compounds were added at a final concentration of 10 μM for the LightCycler®480 and 30 μM for Mx3005P, while the tetra acetylated histone peptide was added to a final concentration of 100 μM and 300 μM respectively. […] The temperature was raised with a step of 0.6° C. per minute from 37° C. to 95° C. with the LightCycler®480 collecting 39 measurements per ° C., and 1° C. per minute from 25° C. to 95° C. with Mx3005P, collecting fluorescence readings at the end of each interval. Each sample was run in triplicates.
(§2) Collected data was analysed by IGOR Pro 6, a scientific software tool from Wave Metrics, Inc. Analysis was done following the recommendations of Niesen et al.. Fluorescence intensity was plotted as a function of temperature, generating a sigmoidal curve described by a two-state transition from folded to unfolded protein. Curves were fitted by the following sigmoidal equation: […]
(§3) A1 and A2 are the values of minimum and maximum intensities, respectively, x0 is the inflection point and dx is the rate. Fitted curves were differentiated in IGOR Pro 6 and the maximum of the first derivative was identified using the same program. These values correspond to the inflection points of the transition curves and thus to the melting temperatures of the proteins (Tm).

Solubility observations = details: observation in words
Brd2(1)*(Met165-Leu) = target: T2, Brd2(1)*(Met165-Leu) (Homo sapiens, UniProt P25440, M165L); assay: DSF thermal shift; format: binding; details: mutant
T2 construct: Plasmids of the eight single BET bromodomain constructs Brd2(1), Brd2(2), Brd3(1), Brd3(2); His6 (N); made in house; host or cells: E. coli BL21(DE3)
Description: as §1, §2, §3

Brd2(2)*(Met438-Leu) = target: T3, Brd2(2)*(Met438-Leu) (Homo sapiens, UniProt P25440, M438L); assay: DSF thermal shift; format: binding; details: mutant
T3 construct: Plasmids of the eight single BET bromodomain constructs Brd2(1), Brd2(2), Brd3(1), Brd3(2); His6 (N); made in house; host or cells: E. coli BL21(DE3)
Description: as §1, §2, §3

Brd2(2)*(Met438-Ala) = target: T4, Brd2(2)*(Met438-Ala) (Homo sapiens, UniProt P25440, M438A); assay: DSF thermal shift; format: binding; details: mutant
T4 construct: Plasmids of the eight single BET bromodomain constructs Brd2(1), Brd2(2), Brd3(1), Brd3(2); His6 (N); made in house; host or cells: E. coli BL21(DE3)
Description: as §1, §2, §3

[1] = tested on: Brd2(1) and (2) wild type and leucine to alanine, valine and isoleucine mutants; assay: DSF thermal stabilization (FIG. 15); format: binding, human; details: result in words
Description: as §1, with “Prior to DSF assays, frozen proteins were buffer exchanged using Vivaspin®6 concentrators with a 10 kDa cutoff on a Centrifuge 5430 from Eppendorf at a speed of 6000×g to remove glycerol and to buffer the proteins in 20 mM HEPES pH 7.5 at 25° C. and 100 mM NaCl.” left out
as §2, §3

[2] = tested on: WT and mutants (Leu to Ala, Leu to Val and Leu to Ile) of Brd2(2); assay: ITC of compound into protein (FIG. 16); format: binding, human; details: 250 μM compound into 25 μM protein; result in words
Description: To investigate the utility of the new compounds further, the inventors performed isothermal titration experiments by titrating 250 μM compound solutions (AL, ME-Am1, ET-Am1, ME-Am2, ET-Am2, 9-ME, 9-ET, 9-ME-Am1 and 9-ET-Am1) 25 μM protein solutions (WT and mutants (Leu to Ala, Leu to Val and Leu to Ile) of Brd2(2)).
ITC experiments were carried out on a ITC200 instrument from MicroCal™ Experiments were conducted at 3 different temperatures 15° C., 25° C. and 30° C., while stirring at 1000 rpm. Buffers of proteins, peptide and compounds were matched to 20 mM HEPES pH 7.5 at 25° C. and 100 mM NaCl. Frozen protein was buffer exchanged as described for the DSF experiments. Each titration comprised 1 initial injection of 0.4 μl lasting 0.8 s, followed by 19 injections of 2 μl lasting 4 s each at 2 min intervals. The initial injection was discarded during data analysis. Standard and reverse titrations were conducted depending on the binding partners.
All the data was fitted to a single binding site model using the Microcal LLC ITC200 Origin software provided by the manufacturer to yield enthalpies of binding (ΔH) and binding constants (Kas). Further thermodynamic parameters were calculated from these values (changes in entropy ΔS, changes in free energy AG and dissociation constants (Kds)).

Brd2(1) = target: T5, Brd2(1) (Homo sapiens, UniProt P25440); assay: DSF thermal shift; format: binding; details: wild type
T5 construct: Plasmids of the eight single BET bromodomain constructs Brd2(1), Brd2(2), Brd3(1), Brd3(2); His6 (N); made in house; host or cells: E. coli BL21(DE3)
T5 sequence (P25440 74-180 limits assumed): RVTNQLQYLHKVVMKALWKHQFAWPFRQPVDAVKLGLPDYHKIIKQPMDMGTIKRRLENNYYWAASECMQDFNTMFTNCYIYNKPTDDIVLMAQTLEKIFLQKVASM

T4 sequence (P25440 344-453 M438A limits assumed): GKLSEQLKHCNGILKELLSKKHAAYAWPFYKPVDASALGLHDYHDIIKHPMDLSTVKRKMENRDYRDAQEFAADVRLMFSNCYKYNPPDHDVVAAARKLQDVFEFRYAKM
T1 sequence (P25440 344-453 limits assumed): as the sequence (P25440 344-453 M438A limits assumed) above, with A95M counted along it
T2 sequence (P25440 74-180 M165L limits assumed): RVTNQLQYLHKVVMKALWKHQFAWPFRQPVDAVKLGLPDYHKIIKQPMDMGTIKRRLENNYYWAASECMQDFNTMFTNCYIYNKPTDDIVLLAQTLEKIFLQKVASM
Sequence of Brd2(1)*(Met165Ala) (P25440 74-180 M165A limits assumed): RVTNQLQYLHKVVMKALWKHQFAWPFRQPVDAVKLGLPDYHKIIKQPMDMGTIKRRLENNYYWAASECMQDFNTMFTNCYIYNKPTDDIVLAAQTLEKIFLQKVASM
T3 sequence (P25440 344-453 M438L limits assumed): as the sequence (P25440 344-453 M438A limits assumed) above, with A95L counted along it

SMILES	ΔTm Brd2(2) (Brd2(2))	ΔTm Brd2(1)*(Met165-Ala) (Brd2(1)*(Met165Ala))	Solubility (Solubility observations)	ΔTm Brd2(1)*(Met165-Leu) (Brd2(1)*(Met165-Leu))	ΔTm Brd2(2)*(Met165-Leu) (Brd2(2)*(Met438-Leu))	ΔTm Brd2(2)*(Met165-Ala) (Brd2(2)*(Met438-Ala))	Thermal stabilization of Brd2 mutants versus wild types (FIG. 15) [1]	Selectivity for Brd2(2) mutants relative to wild type by ITC (FIG. 16) [2]	ΔTm Brd2(1) (Brd2(1))
COc1ccc(-c2ccc(S(=O)(=O)Nc3ccc4c(c3)CN(C)C(=O)N4)cc2)cc1 [Compound 50, 4′-methoxy-N-(3-methyl-2-oxo-1,2,3,4-tetrahydroquinazolin-6-yl)-[1,1′-biphenyl]-4-sulfonamide]	0.7 ± 0.2 K	5.3 ± 0.3 K	solubility of the compound decreased	1.7 ± 0.1 K	3.8 ± 0.2 K	4.1 ± 0.1 K	–	–	–
CCNC(=O)[C@H](CC)[C@@H]1N=C(c2ccc(Cl)cc2)c2ccc(OC)cc2-n2c(C)nnc21 (racemic) [Compound 9-ET-Am1, (+−) (R)-2-((S)-6-(4-chlorophenyl)-9-methoxy-1-methyl-4H-benzo[f][1,2,4]triazolo[4,3-a][1,4]diazepin-4-yl)-N-ethylbutanamide]	–	–	–	–	–	–	smaller shifts	higher selectivity for the mutants relative to wild types	–
COC(=O)CC1N=C(c2ccc(Cl)cc2)c2cc(OC)ccc2-n2c(C)nnc21 (racemic) [I-BET-OMe, (+−)-methyl 2-(6-(4-chlorophenyl)-8-methoxy-1-methyl-4H-benzo[f][1,2,4]triazolo[4,3-a][1,4]diazepin-4-yl)acetate, reference compound]	–	–	–	–	–	–	no selective stabilization of the mutant proteins	–	–
Cc1cccc(S(=O)(=O)Nc2ccc3c(c2)CN(C)C(=O)N3)c1 [Compound 53, 3-methyl-N-(3-methyl-2-oxo-1,2,3,4-tetrahydroquinazolin-6-yl)benzenesulfonamide]	0.7 ± 0.1 K	0.0 ± 0.1 K	low solubility	0.0 ± 0.1 K	0.0 ± 0.0 K	0.0 ± 0.1 K	–	–	0.0 ± 0.3 K
